Reference: patent publication US20230165979A1, “COPPER-CONTAINING THERAGNOSTIC COMPOSITIONS AND METHODS OF USE” (Cornell University, priority 2020, published 2023)

Assays:
PSMA on LNCaP cells = molecular target: T1, PSMA on LNCaP cells (Homo sapiens, UniProt Q04609); experiment: Multi-concentration competitive binding assay against 99mTc-MIP-1427
T1 construct: host or cells: LNCaP
Description: The PSMA-expressing human prostate cancer cell line, LNCaP, was obtained from the American Type Culture Collection. Cell culture supplies were obtained from Invitrogen (USA) unless otherwise noted. LNCaP cells were maintained in RPMI-1640 medium supplemented with 10% fetal bovine serum (Hyclone), 4 mM L-glutamine, 1 mM sodium pyruvate, 10 mM N-2-hydroxyethylpiperazine-N-2-ethanesulfonic acid (HEPES), 2.5 mg/mL D-glucose, and […] gentamicin in a humidified incubator at 37° C./5% CO2. Cells were removed from flasks for passage or for transfer to 12-well assay plates by incubating them with 0.25% trypsin/ethylenediaminetetraacetic acid (EDTA).
The IC50 of metal-free RPS-085 was determined in a multi-concentration competitive binding assay against ^99mTc-MIP-1427 (Hillier et al., J Nucl Med. 2013; 54: 1369-76) for binding to PSMA on LNCaP cells, according to previously described methods (Kelly et al., Eur J Nucl Med Mol Imaging. 2018; 45: 1841-51). RPS-085 was added in to the wells in final concentrations ranging from 1 pM-10 μM. The assay was performed in triplicate, and the IC50 was expressed as mean±standard deviation.

Plasma stability = format: in vitro ADME, human; conditions: 24 h, 37° C.
Description: The plasma stability of [^67Cu]Cu-RPS-085 was determined according to previously described methods (Alt, et al., Mol Pharmaceutics. 2014; 11: 2855-63). Briefly, frozen human plasma was purchased from Sigma Aldrich (USA), thawed at 37° C., and 200 μL aliquots were transferred to Eppendorf tubes. A 100 μL aliquot of [^67Cu]Cu-RPS-085 in 10% EtOH/saline was added to each tube, and the mixture was shaken at 300 rpm for 24 h at 37° C. on an Eppendorf ThermoMixer® C (VWR, USA). The experiment was performed in triplicate. The proteins were precipitated by addition of 600 μL acetonitrile. The samples were centrifuged at 13500 rpm for 3 min in an Eppendorf 5424-R Centrifuge. The supernatant was analyzed by analytical reverse phase (radio)HPLC as described above. After 24 h incubation in human plasma, [^67Cu]Cu-RPS-085 was 97.4±0.4% intact. The lone radiochemical impurity was an unidentified fragment of the parent compound.

LNCaP xenografts = experiment: Tissue biodistribution in mice bearing LNCaP xenografts; format: in vivo, male Balb/C nu/nu mice; conditions: for activity in kidneys / tumor uptake: i.v., ±SEM
Description: All animal studies were approved by the Institutional Animal Care and Use Committee of Weill Cornell Medicine and were undertaken in accordance with the guidelines set forth by the USPHS Policy on Humane Care and Use of Laboratory Animals. The mice were housed under standard conditions in approved facilities with 12 h light/dark cycles. Food and water was provided ad libitum throughout the course of the studies. Male BALB/c athymic nu/nu mice were purchased from the Jackson Laboratory (USA). Prior to inoculation, LNCaP cells were suspended at a density of 4×10^7 cells/mL in a 1:1 mixture of PBS (VWR, USA):Matrigel (BD Biosciences, USA). Each mouse was injected subcutaneously in the left flank with 0.25 mL of the cell suspension. The animals were monitored twice weekly until palpable tumors emerged.
When tumor size reached approximately 200 mm^3, mice (n=4/time point) were administered 3.8±0.1 MBq [^64Cu]Cu-RPS-085 or 0.8±0.005 MBq [^67Cu]Cu-RPS-085 by intravenous injection. The total mass dose received by each animal was approximately 50 ng (31 pmol) and approximately 28 ng (17 pmol) for the [^64Cu]Cu-RPS-085 and [^67Cu]Cu-RPS-085 studies, respectively. The mice were sacrificed at 4 h, 24 h, or 48 h p.i. ([^64Cu]Cu-RPS-085) or 4 h, 24 h, and 96 h ([^67Cu]Cu-RPS-085). A blood sample was collected, and the following tissues were collected and weighed wet using a digital balance: heart, lungs, liver, stomach, small intestine, large intestine, spleen, pancreas, kidneys, muscle, bone, and tumor. The tissues were counted on a Wizard2 Automatic Gamma Counter (Perkin Elmer, USA) against a 1% injected dose standard. The counts were corrected for decay and for activity injected, and tissue uptake was expressed as percent injected dose per gram (% ID/g). Standard error of the mean (SEM) was calculated for each data point. Statistical analyses were performed using an unpaired t test with GraphPad Prism software. A P value of less than 0.05 was considered significant. The concentration of [67Cu]Cu-RPS-085 found in blood, heart, lungs, liver, small intestine, large intestine, stomach, spleen, pancreas, kidneys, muscle, and bone at 4 h, 24 h, and 96 h, post injection (n=4 per time point) is shown in Table 1 below. Published values for [177Lu]Lu-RPS-063 are shown for comparison; all concentrations are expressed as percent injected dose per organ.

T1 sequence (Q04609 whole entry): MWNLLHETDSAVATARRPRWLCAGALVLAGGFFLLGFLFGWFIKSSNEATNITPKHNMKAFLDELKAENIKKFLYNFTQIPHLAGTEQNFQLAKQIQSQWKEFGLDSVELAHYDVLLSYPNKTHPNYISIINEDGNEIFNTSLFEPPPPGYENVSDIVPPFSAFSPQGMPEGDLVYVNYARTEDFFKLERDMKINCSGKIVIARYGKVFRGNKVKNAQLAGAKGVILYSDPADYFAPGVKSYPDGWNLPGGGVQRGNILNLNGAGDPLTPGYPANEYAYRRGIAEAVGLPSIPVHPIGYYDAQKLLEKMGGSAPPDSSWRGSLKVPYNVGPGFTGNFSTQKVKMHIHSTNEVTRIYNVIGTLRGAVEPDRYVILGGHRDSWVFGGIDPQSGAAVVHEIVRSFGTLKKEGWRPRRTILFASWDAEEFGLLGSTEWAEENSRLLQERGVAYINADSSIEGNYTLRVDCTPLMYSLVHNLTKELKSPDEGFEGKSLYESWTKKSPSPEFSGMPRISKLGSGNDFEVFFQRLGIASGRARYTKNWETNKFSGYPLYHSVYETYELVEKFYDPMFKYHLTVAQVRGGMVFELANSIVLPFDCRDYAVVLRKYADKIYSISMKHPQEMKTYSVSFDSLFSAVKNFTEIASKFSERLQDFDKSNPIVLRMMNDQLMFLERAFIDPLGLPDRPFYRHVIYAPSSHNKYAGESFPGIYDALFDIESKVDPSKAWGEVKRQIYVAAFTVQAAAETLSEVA

## CC12CNCCNCC(NC(=O)CCCC(=O)NCCCC[C@H](NC(=O)CCOCCOCCOCCn3cc(-c4cccc(NC(=O)NCCCC[C@H](NC(=O)N[C@@H](CCC(=O)O)C(=O)O)C(=O)O)c4)nn3)C(=O)N[C@@H](CCCCNC(=O)Cc3ccc(I)cc3)C(=O)O)(CNCCNC1)CNCCNC2 [RPS-085]
PSMA on LNCaP cells
  IC50: 29.1 ± 2.4 nM
  affinity for PSMA relative to parent compound RPS-063: reduced by approximately one order of magnitude

## CC12CNCCNCC(NC(=O)CCCC(=O)NCCCC[C@H](NC(=O)CCOCCOCCOCCn3cc(-c4cccc(NC(=O)NCCCC[C@H](NC(=O)N[C@@H](CCC(=O)O)C(=O)O)C(=O)O)c4)nn3)C(=O)N[C@@H](CCCCNC(=O)Cc3ccc(I)cc3)C(=O)O)(CNCCNC1)CNCCNC2.[67Cu+2] [[^67Cu]Cu-RPS-085]
Plasma stability
  fraction intact after incubation in human plasma: 97.4±0.4%
  uncomplexed [67Cu]Cu2+ after incubation in human plasma: No uncomplexed [^67Cu]Cu^2+ was observed
LNCaP xenografts; 4 h p.i.
  activity in kidneys: 19.7±5.0 % ID/g
  tumor uptake: 12.5±2.7 % ID/g
LNCaP xenografts; 4 h post injection
  Concentration in Blood: 0.02057 percent injected dose per organ
  Concentration in Bone: 0.003853 percent injected dose per organ
  Concentration in Heart: 0.01078 percent injected dose per organ
  Concentration in Kidneys: 11.63 percent injected dose per organ
  Concentration in Large Intestine: 0.29 percent injected dose per organ
  Concentration in Liver: 0.2795 percent injected dose per organ
  Concentration in Lungs: 0.0358 percent injected dose per organ
  Concentration in Muscle: 0.002757 percent injected dose per organ
  Concentration in Pancreas: 0.00535 percent injected dose per organ
  Concentration in Small Intestine: 0.1493 percent injected dose per organ
  Concentration in Spleen: 0.02732 percent injected dose per organ
  Concentration in Stomach: 0.05547 percent injected dose per organ
LNCaP xenografts; 24 h p.i.
  activity in kidneys: 4.5±0.8 % ID/g
  tumor uptake: 7.9±0.9 % ID/g
LNCaP xenografts; 24 h post injection
  Concentration in Blood: 0.005816 percent injected dose per organ
  Concentration in Bone: 0.001592 percent injected dose per organ
  Concentration in Heart: 0.0068 percent injected dose per organ
  Concentration in Kidneys: 1.857 percent injected dose per organ
  Concentration in Large Intestine: 0.1354 percent injected dose per organ
  Concentration in Liver: 0.1811 percent injected dose per organ
  Concentration in Lungs: 0.01881 percent injected dose per organ
  Concentration in Muscle: 0.001018 percent injected dose per organ
  Concentration in Pancreas: 0.002143 percent injected dose per organ
  Concentration in Small Intestine: 0.08652 percent injected dose per organ
  Concentration in Spleen: 0.008292 percent injected dose per organ
  Concentration in Stomach: 0.04228 percent injected dose per organ
LNCaP xenografts; 96 h p.i.
  tumor-to-kidney ratio: 3.0±0.5
  activity in kidneys: 1.7±0.3 % ID/g
  tumor uptake: 5.1±3.3 % ID/g
LNCaP xenografts; 96 h post injection
  Concentration in Blood: 0.003526 percent injected dose per organ
  Concentration in Bone: 0.001075 percent injected dose per organ
  Concentration in Heart: 0.008094 percent injected dose per organ
  Concentration in Kidneys: 0.6854 percent injected dose per organ
  Concentration in Large Intestine: 0.1379 percent injected dose per organ
  Concentration in Liver: 0.1208 percent injected dose per organ
  Concentration in Lungs: 0.01063 percent injected dose per organ
  Concentration in Muscle: 0.000956 percent injected dose per organ
  Concentration in Pancreas: 0.003044 percent injected dose per organ
  Concentration in Small Intestine: 0.06091 percent injected dose per organ
  Concentration in Spleen: 0.005006 percent injected dose per organ
  Concentration in Stomach: 0.04483 percent injected dose per organ
LNCaP xenografts; over 96 h p.i.
  accumulated activity (Ã) in kidneys: 538 (% ID/g)·h
  accumulated activity (Ã) in tumors: 699 (% ID/g)·h
  Ãtumor relative to [177Lu]PSMA-617: 1.3 times
  Ãtumor/Ãkidney ratio: 1.3
